{"source": "patent US20250109162A1", "about": "“FLEX-NUCLEOSIDE ANALOGUES, NOVEL THERAPEUTICS AGAINST VIRUSES” (UNIVERSITY OF MARYLAND, BALTIMORE COUNTY, priority 2022, published 2025)", "key": {"HPV11 replicon": {"tested_on": "HPV11 replicon", "assay_type": "cell-based, Human papillomavirus"}, "Vero cells": {"tested_on": "Vero cells", "conditions": "African green monkey"}, "Akata cells": {"tested_on": "Akata cells", "conditions": "human"}, "[1]": {"tested_on": "Epstein-Barr virus, strain Akata", "experiment": "microbe, parasite or virus in culture", "assay_type": "cell-based", "conditions": "for EC90: read-out: EC90 - compound concentration that reduces viral replication by 90%"}, "[2]": {"tested_on": "Chikungunya Virus, strain S27, ATCC VR-64", "experiment": "microbe, parasite or virus in culture", "assay_type": "cell-based"}, "Enterovirus": {"tested_on": "Enterovirus", "experiment": "microbe, parasite or virus in culture", "assay_type": "cell-based"}, "[3]": {"tested_on": "Ebola Virus, strain Zaire", "assay_type": "cell-based"}, "EBOV (VP30, Huh)": {"tested_on": "EBOV (VP30, Huh)", "experiment": "microbe, parasite or virus in culture", "assay_type": "cell-based, Ebola Virus", "conditions": "Zaire ebolavirus"}, "HHV-6B, Z29": {"tested_on": "HHV-6B, Z29", "experiment": "microbe, parasite or virus in culture", "assay_type": "cell-based, human herpesvirus 6", "conditions": "Human betaherpesvirus 6, MOLT-3"}, "BK, Gardner": {"tested_on": "BK, Gardner", "experiment": "microbe, parasite or virus in culture", "assay_type": "cell-based, BK virus (aka Human polyomavirus 1)", "conditions": "Betapolyomavirus hominis"}, "HBV": {"tested_on": "HBV", "experiment": "HBV (Tavis) EC50 (Table 8)", "assay_type": "cell-based", "conditions": "Hepatitis B virus"}, "[4]": {"experiment": "Cytotoxicity in HBV (Tavis) assay (Table 8)", "assay_type": "cell-based"}, "[5]": {"tested_on": "MERS Coronavirus, strain EMC", "assay_type": "cell-based"}, "[6]": {"tested_on": "Dengue Virus 2, strain New Guinea C", "assay_type": "cell-based"}, "CHIKV": {"tested_on": "CHIKV", "experiment": "CHIKV IC50 (Table 8)", "assay_type": "cell-based", "conditions": "Chikungunya virus"}, "DENV2": {"tested_on": "DENV2", "experiment": "DENV2 IC50 (Table 8)", "assay_type": "cell-based, Dengue Virus 2", "conditions": "Dengue virus"}, "[7]": {"conditions": "human gammaherpesvirus 4, Akata"}}, "note": "Values joined by “and” are separate entries in the source; they are usually repeats but may differ in a detail not shown here. Equal entries are not always repeated. Where two headings read alike, the source gives them in different places.", "data": [{"smiles": "Nc1nc2c(ncn2CCOCP(=O)(O)O)c(=O)[nH]1", "note": "[PMEG]", "values": [{"measurement": "EC50", "setting": "HPV11 replicon", "result": "2 to 9.2", "unit": "µM"}]}, {"smiles": "Nc1nc(=O)n([C@@H]2C[C@@H](O)[C@H](CO)O2)cc1-c1ccco1", "note": "[CHK-05, 4-amino-5-(furan-2-yl)-1-((2S,4R,5S)-4-hydroxy-5-(hydroxymethyl)tetrahydrofuran-2-yl)pyrimidin-2(1H)-one]", "values": [{"measurement": "CC50", "setting": "Vero cells", "result": "> 100", "unit": "µM"}, {"measurement": "CC50", "setting": "Akata cells", "result": "> 100", "unit": "µM"}, {"measurement": "EC90", "setting": "[1]; [7]", "result": "> 100", "unit": "µM"}, {"measurement": "EC50", "setting": "[2]", "result": "> 42", "unit": "µM"}, {"measurement": "EC50", "setting": "[2]; Chikungunya virus", "result": "> 68", "unit": "µM"}, {"measurement": "EC50", "setting": "Enterovirus", "result": 24, "unit": "µM"}, {"measurement": "CC50", "setting": "Huh7 cells; human", "result": "> 100", "unit": "µM"}, {"measurement": "EC50", "setting": "[3]", "result": 18, "unit": "µM"}]}, {"smiles": "O=c1[nH]c(=O)n([C@@H]2C[C@@H](O)[C@H](CO)O2)cc1-c1cccs1", "note": "[CHK-02, 1-((2S,4R,5S)-4-hydroxy-5-(hydroxymethyl)tetrahydrofuran-2-yl)-5-(thiophen-2-yl)pyrimidine-2,4(1H,3H)-dione]", "values": [{"measurement": "CC50", "setting": "in vitro", "result": "> 150", "unit": "µM"}, {"measurement": "EC50", "setting": "EBOV (VP30, Huh)", "result": 20.6, "unit": "µM"}, {"measurement": "EC50", "setting": "[1]; [7]", "result": 10.7, "unit": "µM"}, {"measurement": "EC50", "setting": "HHV-6B, Z29", "result": 11.1, "unit": "µM"}, {"measurement": "EC50", "setting": "BK, Gardner", "result": "< 0.048", "unit": "µM"}, {"measurement": "EC50", "setting": "HBV", "result": "< 0.32", "unit": "µM"}, {"measurement": "CC50", "setting": "[4]", "result": "> 32", "unit": "µM"}]}, {"smiles": "O=c1nc(NO)ccn1[C@@H]1O[C@H](CO)[C@@H](O)[C@H]1O", "note": "[EIDD-1931]", "values": [{"measurement": "EC50", "setting": "[5]", "result": "0.036 µg/mL and 0.034 µg/mL"}, {"measurement": "CC50", "setting": "Vero 76 cells", "result": ">10", "unit": "µg/mL"}, {"measurement": "CC50", "setting": "HVero 76 cells", "result": ">100", "unit": "µg/mL"}]}, {"smiles": "Nc1ccn(C[C@@H](CO)OCP(=O)(O)O)c(=O)n1", "note": "[Cidofovir, reference compound]", "values": [{"measurement": "EC50", "setting": "[1]; read-out: EC50 - compound concentration that reduces viral replication by 50%", "result": 5.94, "unit": "µM"}, {"measurement": "EC90", "setting": "[1]", "result": 73.5, "unit": "µM"}]}, {"smiles": "Cc1ccc(-c2cn([C@@H]3C[C@@H](O)[C@H](CO)O3)c(=O)[nH]c2=O)s1", "note": "[CHK-03, 1-((2S,4R,5S)-4-hydroxy-5-(hydroxymethyl)tetrahydrofuran-2-yl)-5-(5-methylthiophen-2-yl)pyrimidine-2,4(1H,3H)-dione]", "values": [{"measurement": "CC50", "setting": "Akata cells", "result": "> 100", "unit": "µM"}]}, {"smiles": "NC(=O)c1nc(F)c[nH]c1=O", "note": "[Favipiravir, reference compound]", "values": [{"measurement": "CC50", "setting": "Vero cells", "result": "> 1000", "unit": "µM"}]}, {"smiles": "C#C[C@@]1(O)[C@H](O)[C@@H](CO)O[C@H]1n1ccc2c(N)ncnc21", "note": "[NITD008]", "values": [{"measurement": "EC50", "setting": "[6]", "result": "0.36 µM and 0.43 µM"}, {"measurement": "CC50", "setting": "Huh7 cells", "result": "> 100", "unit": "µM"}]}, {"smiles": "Nc1nc(=O)n([C@@H]2C[C@@H](O)[C@H](CO)O2)cc1-c1cccs1", "note": "[CHK-06, 4-amino-1-((2S,4R,5S)-4-hydroxy-5-(hydroxymethyl)tetrahydrofuran-2-yl)-5-(thiophen-2-yl)pyrimidin-2(1H)-one]", "values": [{"measurement": "IC50", "setting": "CHIKV", "result": 76.2, "unit": "µM"}]}, {"smiles": "Cc1ccc(-c2cn([C@@H]3C[C@@H](O)[C@H](CO)O3)c(=O)nc2N)o1", "note": "[CHK-08, 4-amino-1-((2S,4R,5S)-4-hydroxy-5-(hydroxymethyl)tetrahydrofuran-2-yl)-5-(5-methylfuran-2-yl)pyrimidin-2(1H)-one]", "values": [{"measurement": "IC50", "setting": "DENV2", "result": 74, "unit": "µM"}]}]}
